We go through three molecules from patent US20030229035A1, “Method of restoring ciliated cell motility” (priority 2001, published 2003).

The subject of one test is proteosome pathway. The experiment in a line: Proteasome inhibition in CHO cells stably expressing recombinant Insl6, Western blot with anti-Insl6 antibody. Type of test: cell-based, chinese hamster. The note with it: 5 μM, cells harvested after 4 h or 24 h, FIG. 5D. As to the method: (§1) Based on the magnitude of difference in molecular weights between the two species (31-32 vs. 40 kDa), it was investigated whether Insl6 is ubiquinated. […] In contrast, the absence of the larger bands in a transcription/translation reaction using wheat germ extracts (FIG. 5C) supports the possibility that the Insl6 protein is ubiquinated. […] Briefly CHO cells stably expressing Insl6 were either exposed to vehicle (−) or 5 μM Clasto-Lactacystin-β-lactone (Clasto-L) (+) and cells harvested after 4 h (lanes A & B) or 24 h (lanes C & D). The cell lysates were Western blotted with anti-Insl6 antibody. To address te possibility that over-expression of Insl6 in the CHO cells may have facilitated aberrant ubiquination, the effect of inhibition of the proteasome pathway in a coupled in vitro transcriptiontranslation was investigated. The data obtained support the in vivo data showing that inhibition of the proteasome pathway results in decelerated rate of degradation of the Insl6 (FIG. 5E). Briefly, coupled in vitro transcription/translation of Insl6 using reticulocyte lysates performed in the presence of [^35S]
A general note: Immunoblotting shows a protein as a band on a membrane.

The test system of another test is proteasome pathway. The test can be described thus: Coupled in vitro transcription/translation of Insl6 using reticulocyte lysates with proteasome inhibition. Type of test: biochemical. The settings on record: 5 μM, [35S] L-cysteine, FIG. 5E. How it is done: as §1
The next test deals with PKC. The settings on record: no effect on PKC; cited from earlier work.
A further test addresses T1, PKG (Homo sapiens, UniProt Q13976).
T1 sequence (Q13976 1-671): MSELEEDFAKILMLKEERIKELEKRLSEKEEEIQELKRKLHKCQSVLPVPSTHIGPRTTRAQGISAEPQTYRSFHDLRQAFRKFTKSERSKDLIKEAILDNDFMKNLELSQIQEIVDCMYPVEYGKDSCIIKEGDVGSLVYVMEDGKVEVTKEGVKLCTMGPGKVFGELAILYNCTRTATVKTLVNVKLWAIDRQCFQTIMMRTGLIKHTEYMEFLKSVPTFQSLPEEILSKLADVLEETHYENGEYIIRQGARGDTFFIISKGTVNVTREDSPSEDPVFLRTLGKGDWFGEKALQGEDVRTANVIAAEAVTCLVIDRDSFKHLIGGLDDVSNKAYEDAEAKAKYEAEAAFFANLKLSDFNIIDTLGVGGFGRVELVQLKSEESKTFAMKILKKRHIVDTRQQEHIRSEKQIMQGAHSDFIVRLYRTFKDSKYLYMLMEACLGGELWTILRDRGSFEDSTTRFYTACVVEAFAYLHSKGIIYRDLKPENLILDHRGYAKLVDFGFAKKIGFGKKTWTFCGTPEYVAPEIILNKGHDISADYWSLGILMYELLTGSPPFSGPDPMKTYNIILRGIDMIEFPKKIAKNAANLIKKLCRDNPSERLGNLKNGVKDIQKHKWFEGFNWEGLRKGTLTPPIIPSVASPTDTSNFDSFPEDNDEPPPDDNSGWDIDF
The note with it: no effect on PKG; cited from earlier work.

A further test addresses PKA (Homo sapiens, UniProt P17612). The settings on record: vendor Tocris; cited from earlier work.
The subject of test [1] is rat primary Sertoli cells. The experiment in a line: Tyrosine phosphorylation profile of rat primary Sertoli cell proteins by Western blotting. The class given is cell-based. The note with it: serum-deprived rat primary Sertoli cells, recombinant Insl6 in serum-free milieu. From the text:
Although Sertoli cell lines are useful tools for investigating Sertoli cell function, they are important differences between primary Sertoli cells and established Sertoli cell lines. For example, compared to primary Sertoli cells, MSC-1 cells are relatively deficient in the FSH receptor. […] For this purpose, we exposed serum-deprived rat primary Sertoli cells to recombinant Insl6 in a serum-free milieu and determined the tyrosine phosphorylation profile of cellular proteins by Western blotting. […] Based on the premise that Insl6 belongs to the insulin family of proteins, the following canonical signaling pathways involving Insl6 action on Sertoli cells were investigated:
Isolation and culture of primary rat Sertoli cells—Rat Sertoli cells were isolated in our laboratory using a standardized protocol. […] The purity of the Sertoli cell isolate yielded by this protocol is >95% as determined by phase microscopy and alkaline phosphatase staining.
(§2) Western Blot Analysis—Western blot analyses were carried out by established protocols known by those skilled in art. […] Equality of loading and efficiency of transfer were assessed by Ponceau staining of the nitrocellulose filters and protein concentration determined by Bradford's method (BioRad). […]

For test [2], the system named is MSC-1 (mouse Sertoli cell line) cells. The test can be described thus: Tyrosine phosphorylation of MSC-1 cellular proteins, anti-phosphotyrosine Western blot. Type of test: cell-based. The settings on record: serum-deprived cells, ten minutes, serum-free conditioned medium from CHO cells expressing Insl6 vs non-transfected CHO; FIG. 11A.
Text: The effect of Insl6 on Sertoli cells was confirmed by exposing serum-deprived MSC-1 (mouse Sertoli cell line) cells to serum-free conditioned medium containing recombinant Insl6 secreted by the CHO cells stably expressing epitope-tagged Ins16. The effect of Insl6 on the phosphorylation status of MSC-1 cellular proteins was initially investigated. […] Serum-deprived MSC-1 cells were exposed for ten minutes to serum-free conditioned medium from either CHO cells expressing Insl6 (lane A, FIG. 11A) or from non-transfected CHO cells (lane B, FIG. 11A). Cell lysates were subjected to reducing SDS-PAGE and blotted with antiphphosphotyrosine antibodies. The specific protein bands showing increased phosphorylation in response to Insl6 are indicated by the diamond and star symbols respectively.
as §2

A further test relates to MSC-1 cells. The test can be described thus: Proliferation of MSC-1 cells, colorimetric viable cell assay. Type of test: cell-based, mouse. The note with it: serum-deprived cells, varying time periods, conditioned medium from CHO cells expressing Insl6 vs non-transfected CHO; FIG. 12. As to the method:
To further investigate the significance of alteration in the tyrosine phosphorylation status of MSC-1 proteins, the effects of Insl6 on proliferation of MSC-1 were tested. For these experiments serum-deprived MSC-1 cells were exposed for varying time periods to serum-free conditioned medium from either CHO cells expressing Insl6 or from non-transfected CHO cells and the number of viable cells determined by a colorimetic assay (celltiter 96 Aqueous One Solution Cell Proliferation Assay; Promega, Madison, Wis., USA).

By Ki is commonly meant a measure of affinity in units of concentration, obtained from inhibition or displacement.

Turning to `CC(C)[C@H](O)[C@@]12NC(=O)[C@H](C)[C@@H]1OC2=O` [Clasto-Lactacystin-β-lactone], the “effect on half-life of Insl6” value in the test on proteosome pathway is reported as “prolongation of the half-life of Insl6”. Further, the “effect on rate of degradation of Insl6” value in the test with proteasome pathway is given as “decelerated rate of degradation of Insl6”.
Take `CCCCCCOC(=O)[C@]1(O)C[C@@H]2O[C@@]1(C)n1c3ccccc3c3c4c(c5c6ccccc6n2c5c31)C(=O)NC4` [KT 5720]: the figures for the Ki at PKC, at PKG and at PKA were above 2000 nM, above 2000 nM and 60 nM, respectively.

B1: Insl6: recombinant His-myc epitope-tagged murine Insl6, insulin family protein, secreted by stably expressing CHO cells (protein)
chain: EEESRPRKLCGRHLLIEVIKLCGQSDWSRFEMEEQSPMTQFFPHYSRKGKAFNPHPSSSAWRRFTNPVPAGVSQKKGTHTWEPQSLPDYQFEKTELLPKARVFSYHSGKPYVKSVQLQKKSTNKMNTFRSLFWGNHSQRKRRGFADKCCVIGCTKEEMAVACLPFVDF
modifications: left off: small tags and cut ends
Take B1: the “effect on tyrosine phosphorylation of cellular proteins” value in test [1] was “alters the tyrosine phosphorylation status of cellular proteins”; in test [2], “specific tyrosine phosphorylation of proteins of molecular weights of approximately 55 and 40 kDa”. Besides, in the test on MSC-1 cells, the effect on proliferation result was “significantly inhibits the proliferation of MSC-1 in a time-dependent manner”.
